Measurements as given in patent US10995103B2, “Substituted boric acid compound, pharmaceutical composition comprising same, and application thereof” (Shenzhen TargetRx, Inc., priority 2016, dated 2021).

Columns and labels:
[1] = Metabolic stability evaluation in human liver microsomes; assay type: in vitro ADME; conditions: pH 7.4, human liver microsomes 0.5 mg/mL, compound 1 μM, NADPH, 37° C.; for microsomal CLint at 1 μM: read-out: CLint, experiment in human liver microsomes; for half-life at 1 μM: read-out: t1/2, experiment in human liver microsomes
Method: (§1) Experiments in microsomes: Human liver microsomes: 0.5 mg/mL, Xenotech; Rat liver microsomes: 0.5 mg/mL, Xenotech; Coenzyme (NADPH/NADH): 1 mM, Sigma Life Science; Magnesium chloride: 5 mM, 100 mM phosphate buffer (pH 7.4).
(§2) Preparation of stock solution: A certain amount of powder of the example compounds was accurately weighed and dissolved in DMSO to 5 mM respectively.
(§3) Preparation of phosphate buffer (100 mM, pH7.4): A pre-formulated 150 mL potassium dihydrogen phosphate (0.5 M) was mixed with 700 mL of dibasic potassium phosphate (0.5M). The pH of the mixture was adjusted to 7.4 with 0.5 M dibasic potassium phosphate solution. The mixture was diluted 5-fold with ultrapure water before use, and magnesium chloride was added to obtain the phosphate buffer (100 mM) containing 100 mM potassium phosphate, 3.3 mM magnesium chloride, pH 7.4.
(§4) A NADPH regeneration system solution (containing 6.5 mM NADP, 16.5 mM G-6-P, 3 U/mL G-6-P D, 3.3 mM magnesium chloride) was prepared and placed on wet ice before use.
(§5) Preparation of stop solution: acetonitrile solution containing 50 ng/mL propranolol hydrochloride and 200 ng/mL tolbutamide (internal standard). 25057.5 μL of phosphate buffer (pH 7.4) was taken into a 50 mL centrifuge tube, to which 812.5 μL human liver microsomes were added, respectively, and mixed to obtain a liver microsome dilution solution with a protein concentration of 0.625 mg/mL. 25057.5 μL of phosphate buffer (pH 7.4) was taken into a 50 mL centrifuge tube, to which 812.5 μL SD rat liver microsomes were added, respectively, and mixed to obtain a liver microsome dilution solution with a protein concentration of 0.625 mg/mL.
(§6) Incubation of the samples: The stock solution of the respective compounds was respectively diluted to 0.25 mM with an aqueous solution containing 70% acetonitrile, which were used as working solutions, ready for use. 398 μL of the dilution solution of human liver microsomes or rat liver microsomes were added to a 96-well incubation plate (N=2), respectively, and 2 μL of 0.25 mM working solution was added and mixed.
(§7) Metabolic stability assay: 300 μL of pre-chilled stop solution was added to each well of a 96-well deep well plate and placed on ice as the stop plate. The 96 well incubation plate and NADPH regeneration system were placed in a 37° C. water bath box, shaken at 100 rpm and pre-incubated for 5 min. 80 μL of incubation solution was taken out from each well of the incubation plate and added to the stop plate, mixed, and replenished with 20 μL of NADPH regeneration system solution as a 0-min sample. 80 μL of NADPH regeneration system solution was added to each well of the incubation plate to start the reaction and counting was started. […] 100 μL of the reaction solution was taken at 10, 30, and 90 min after reaction, respectively, added to the stop plate, and vortexed for 3 minutes to terminate the reaction. The stop plate was centrifuged for 4 min at 5000× g at 4° C. 100 μL of the supernatant was added to a 96-well plate to which 100 μL of distilled water was previously added, mixed, and analyzed by LC-MS/MS.
(§8) Data analysis: The peak areas of the corresponding compounds and internal standard were detected by LC-MS/MS system, and the ratio of the peak area of the compounds to the internal standard was calculated.
(§9) The metabolic stability in human and rat liver microsomes was evaluated by simultaneously testing and comparing the compounds disclosed herein and the non-deuterated compound. The non-deuterated compound Ixazomib was used as a control in the table.

[2] = Metabolic stability evaluation in rat liver microsomes; assay type: in vitro ADME; conditions: SD, pH 7.4, rat liver microsomes 0.5 mg/mL, compound 1 μM, NADPH, 37° C.; for microsomal CLint at 1 μM: read-out: CLint, experiment in rat liver microsomes; for half-life at 1 μM: read-out: t1/2, experiment in rat liver microsomes
Method: as §1, §2, §3, §4, §5, §6, §7, §8, §9

Structure (SMILES)	microsomal CLint at 1 μM [1] [µL/min/mg]	half-life at 1 μM [1] [min]	microsomal CLint at 1 μM [2] [µL/min/mg]	half-life at 1 μM [2] [min]
[2H][C@@](CC(C)C)(NC(=O)CNC(=O)c1cc(Cl)ccc1Cl)B(O)O [Compound I-2, (R)-(1-(2-(2,5-dichlorobenzamido)acetamido)-1-d-3-methylbutyl)boronic Acid]	46.5	29.8	90.5	15.3
[2H]C([2H])(C(C)C)[C@H](NC(=O)CNC(=O)c1cc(Cl)ccc1Cl)B(O)O [Compound I-3, (R)-(1-(2-(2,5-dichlorobenzamido)acetamido)-2,2-d2-3-methylbutyl)boronic Acid]	47.3	29.3		
[2H]C([2H])(NC(=O)c1cc(Cl)ccc1Cl)C(=O)N[C@@H](CC(C)C)B(O)O [Compound I-1, (R)-(1-(2-(2,5-dichlorobenzamido)-2,2-d2-acetamido)-3-methylbutyl)boronic acid]			81.3	17.1

The remaining lines, values ahead:

microsomal CLint at 1 μM [1] [µL/min/mg]	half-life at 1 μM [1] [min]	microsomal CLint at 1 μM [2] [µL/min/mg]	half-life at 1 μM [2] [min]	Structure (SMILES)
48.3	28.7	90	15.4	[2H]C([2H])(NC(=O)c1cc(Cl)ccc1Cl)C(=O)N[C@@]([2H])(CC(C)C)B(O)O [Compound I-4, (R)-(1-(2-(2,5-dichlorobenzamido)-2,2-d2-acetamido)-1-d-3-methylbutyl)boronic Acid]
47.3	29.3	97.8	14.2	[2H]C([2H])(C(C)C)[C@]([2H])(NC(=O)CNC(=O)c1cc(Cl)ccc1Cl)B(O)O [Compound I-5, (R)-(1-(2-(2,5-dichlorobenzamido)acetamido)-1-d-2,2-d2-3-methylbutyl)boronic Acid]
49.4	28.1	97.3	14.3	CC(C)C[C@H](NC(=O)CNC(=O)c1cc(Cl)ccc1Cl)B(O)O [Ixazomib, reference compound]
